Data: paper PMC10899662, “TopBP1 utilises a bipartite GINS binding mode to support genome replication” (Nature Communications, 2024)

B1: TopBP1-BRCT0-5: 6Myc-TEV2-tagged TopBP1-BRCT0-5 expressed in 293T cells (protein)
chain: MSRNDKEPFFVKFLKSSDNSKCFFKALESIKEFQSEEYLQIITEEEALKIKENDRSLYICDPFSGVVFDHLKKLGCRIVGPQVVIFCMHHQRCVPRAEHPVYNMVMSDVTISCTSLEKEKREEVHKYVQMMGGRVYRDLNVSVTHLIAGEVGSKKYLVAANLKKPILLPSWIKTLWEKSQEKKITRYTDINMEDFKCPIFLGCIICVTGLCGLDRKEVQQLTVKHGGQYMGQLKMNECTHLIVQEPKGQKYECAKRWNVHCVTTQWFFDSIEKGFCQDESIYKTEPRPEAKTMPNSSTPTSQINTIDSRTLSDVSNISNINASCVSESICNSLNSKLEPTLENLENLDVSAFQAPEDLLDGCRIYLCGFSGRKLDKLRRLINSGGGVRFNQLNEDVTHVIVGDYDDELKQFWNKSAHRPHVVGAKWLLECFSKGYMLSEEPYIHANYQPVEIPVSHKPESKAALLKKKNSSFSKKDFAPSEKHEQADEDLLSQYENGSSTVVEAKTSEARPFNDSTHAEPLNDSTHISLQEENQSSVSHCVPDVSTITEEGLFSQKSFLVLGFSNENESNIANIIKENAGKIMSLLSRTVADYAVVPLLGCEVEATVGEVVTNTWLVTCIDYQTLFDPKSNPLFTPVPVMTGMTPLEDCVISFSQCAGAEKESLTFLANLLGASVQEYFVRKSNAKKGMFASTHLILKERGGSKYEAAKKWNLPAVTIAWLLETARTGKRADESHFLIENSTKEERSLETEITNGINLNSDTAEHP
modifications: left off: Strep, C-terminal, kept
notes: 6Myc-TEV2-tagged TopBP1-BRCT0-5 expressed in 293T cells

Tests used:
[1] = system: TopBP1-proximal proteins (Psf3, Psf2); test: APEX2 proximity biotinylation, streptavidin pulldown and mass spectrometry; format: cell-based, human; details: three proximity biotinylation experiments; + H2O2 vs - H2O2; four biological replicates
Method: Proximity labelling was performed in isogenic stable 293 Flip-In (Thermo Fisher; R75007) cells stably expressing TopBP1 N-terminal tagged with APEX2 or in 293T cells transiently expressing either N-terminal or C-terminally APEX2-tagged TopBP1. 24 h before transfection, 0.8 × 10^6 cells were seeded onto a 6-cm plate. For each condition, four dishes were separately transfected (biological replicates). One day after transfection, cells were incubated for 30 min with 500 µM biotin phenol at 37 °C, before incubation for 1 min at RT with or without (controls) 1 mM H2O2. The medium was discarded, and cells were washed three times with quenching buffer (10 mM sodium azide, 10 mM sodium ascorbate and 5 mM Trolox in Dulbecco’s PBS (Life Technologies 14190169). Cells were rinsed off the dishes with DPBS, transferred into reaction tubes before washing again with DPBS. Cells were lysed at 95 °C for 10 min in TSD buffer (50 mM Tris pH 7.5, 5 mM DTT and 1% SDS). Samples were diluted ten times with TNN buffer (20 mM Tris pH 7.9, 200 mM NaCl and 0.5% NP-40 alternative) and benzonase (75 U per sample) (Sigma E1014). Samples were incubated for 15 min at 4 °C and centrifuged at 21,000 × g for 2 min at 4 °C. Supernatants were incubated over night with 15 µl streptavidin sepharose beads (Sigma GE17-5113-01) at 4 °C. […]

Sld5 = test: Myc immunoprecipitation from transfected 293T cells, Sld5 co-IP; format: binding; details: transiently transfected 293T cell lysates, anti-Myc
Method: Transient transfections of 6xMyc-Tev2-TopBP1 into 293T cells (ATCC CRL-11268) were carried out using PEI (polyethyleneimine) according to a protocol kindly shared by David Cortez’ lab. 4 µg plasmid DNA in 100 µl DMEM (Thermofisher, 41965039) without penicillin-streptomycin were combined with 2.4 µl Polyethylenimin (Sigma, 408727; 10 mg/ml) and incubated for 20 min before addition to 4 × 10^6 cells on a 10-cm dish. Transfected cells were used 72 h post transfection. 72 h post transfection, 293T cells were lysed by douncing in ten times cell pellet volume of lysis buffer (20 mM HEPES pH 8.0, 150 mM NaCl, 0.1% (v/v) Tween-20, 0.5 mM TCEP, 2% (v/v) glycerol, protease inhibitor cocktail (Roche, Complete protease inhibitor cocktail, 05056489001)), and centrifuged at 20,000 × g for 15 min at 4 °C. The soluble supernatant was added to magnetic anti-Myc beads (5 µl slurry per sample; Thermofischer, 88842) and incubated for 2 h at 4 °C rotating. Cells equivalent to 50% of a 15 cm dish were used per sample. Beads were washed three times in lysis buffer with 5 min incubation each, and finally boiled in 50 µl Laemmli loading buffer (6.5% glycerol, 715 mM β-mercaptoethanol, 3% SDS, 62.5 mM Tris-HCl pH 7.9, 0.005% bromphenol blue).
Non-APEX2-bio=nylated samples (-H2O2) were used as controls. […] Immunoprecipitated TopBP1 was detected using Ponceau (Ponc.) staining. […]

Molecule | enrichment of Psf3 upon streptavidin pulldown [1] | Sld5 co-immunoprecipitation (Sld5)
APEX2-tagged TopBP1: N- or C-terminally APEX2-tagged TopBP1 | specific enrichment of Psf3 | 
B1 |  | weak but specific signal
